Test results published in ChEMBL document CHEMBL1126316, “Non-peptide fibrinogen receptor antagonists. 1. Discovery and design of exosite inhibitors” (J Med Chem, 1992).

How the values were obtained:
Integrin alpha-V/beta-3 [1] = biological target: T1, Integrin alpha-V/beta-3 (Homo sapiens, UniProt P05106+P06756); experiment: Inhibition of HUVEC attachment to human fibrinogen
Integrin alpha-5/beta-1 = Integrin alpha-5/beta-1 (Homo sapiens, UniProt P05556+P08648); experiment: Inhibition of HUVEC attachment to human fibronectin
Integrin alpha-V/beta-3 [2] = biological target: T1, Integrin alpha-V/beta-3; experiment: Inhibition of HUVEC attachment to human vitronectin

T1 sequence (P05106 27-788 limits assumed): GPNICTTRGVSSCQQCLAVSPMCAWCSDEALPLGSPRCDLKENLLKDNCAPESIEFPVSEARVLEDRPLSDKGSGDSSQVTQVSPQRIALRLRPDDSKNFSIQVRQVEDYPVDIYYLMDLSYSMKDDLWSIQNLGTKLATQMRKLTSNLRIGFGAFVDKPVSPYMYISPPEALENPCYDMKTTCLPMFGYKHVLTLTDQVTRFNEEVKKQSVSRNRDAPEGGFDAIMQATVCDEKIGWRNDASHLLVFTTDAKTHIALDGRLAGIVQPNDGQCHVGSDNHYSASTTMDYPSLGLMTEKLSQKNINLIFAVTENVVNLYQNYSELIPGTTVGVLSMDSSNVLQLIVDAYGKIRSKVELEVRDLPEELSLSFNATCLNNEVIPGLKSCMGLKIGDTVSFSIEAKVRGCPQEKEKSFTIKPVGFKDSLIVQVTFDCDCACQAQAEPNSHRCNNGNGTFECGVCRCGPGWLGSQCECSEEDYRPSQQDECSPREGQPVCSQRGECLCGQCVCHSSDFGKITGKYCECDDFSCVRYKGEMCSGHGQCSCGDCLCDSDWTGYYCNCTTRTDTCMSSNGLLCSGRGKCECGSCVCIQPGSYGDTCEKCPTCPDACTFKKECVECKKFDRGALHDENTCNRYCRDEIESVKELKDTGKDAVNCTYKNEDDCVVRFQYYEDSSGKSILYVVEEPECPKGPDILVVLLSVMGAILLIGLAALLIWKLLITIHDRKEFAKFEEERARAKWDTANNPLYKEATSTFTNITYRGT
T1 sequence (P06756 31-889 limits assumed): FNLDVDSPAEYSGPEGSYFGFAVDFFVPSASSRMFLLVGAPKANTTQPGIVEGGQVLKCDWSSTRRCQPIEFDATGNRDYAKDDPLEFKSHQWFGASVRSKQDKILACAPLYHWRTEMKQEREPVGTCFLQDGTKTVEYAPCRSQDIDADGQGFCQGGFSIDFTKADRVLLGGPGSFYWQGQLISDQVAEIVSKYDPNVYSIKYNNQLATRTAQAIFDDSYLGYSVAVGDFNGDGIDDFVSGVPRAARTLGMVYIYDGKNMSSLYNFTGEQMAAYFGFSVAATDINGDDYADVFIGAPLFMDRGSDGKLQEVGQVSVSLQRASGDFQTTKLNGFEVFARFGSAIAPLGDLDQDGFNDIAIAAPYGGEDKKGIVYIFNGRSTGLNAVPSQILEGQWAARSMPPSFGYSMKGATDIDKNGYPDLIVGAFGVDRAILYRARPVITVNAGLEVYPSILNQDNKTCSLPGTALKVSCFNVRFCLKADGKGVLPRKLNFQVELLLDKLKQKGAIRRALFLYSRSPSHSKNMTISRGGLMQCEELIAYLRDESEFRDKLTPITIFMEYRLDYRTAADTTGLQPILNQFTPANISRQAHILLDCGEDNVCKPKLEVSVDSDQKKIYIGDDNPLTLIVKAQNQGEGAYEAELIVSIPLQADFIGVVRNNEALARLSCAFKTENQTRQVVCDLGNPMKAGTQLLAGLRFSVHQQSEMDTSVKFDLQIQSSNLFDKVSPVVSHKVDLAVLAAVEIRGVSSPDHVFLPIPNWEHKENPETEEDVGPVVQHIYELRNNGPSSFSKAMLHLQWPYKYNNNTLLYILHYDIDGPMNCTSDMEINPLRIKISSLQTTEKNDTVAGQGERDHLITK
T1 sequence (P06756 891-1048 limits assumed): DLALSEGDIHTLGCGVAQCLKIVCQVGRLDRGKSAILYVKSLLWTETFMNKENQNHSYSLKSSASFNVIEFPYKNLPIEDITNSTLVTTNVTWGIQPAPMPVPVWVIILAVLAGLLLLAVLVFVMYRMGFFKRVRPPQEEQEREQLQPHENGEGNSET
Sequence of Integrin alpha-5/beta-1 (P05556 21-798 limits assumed): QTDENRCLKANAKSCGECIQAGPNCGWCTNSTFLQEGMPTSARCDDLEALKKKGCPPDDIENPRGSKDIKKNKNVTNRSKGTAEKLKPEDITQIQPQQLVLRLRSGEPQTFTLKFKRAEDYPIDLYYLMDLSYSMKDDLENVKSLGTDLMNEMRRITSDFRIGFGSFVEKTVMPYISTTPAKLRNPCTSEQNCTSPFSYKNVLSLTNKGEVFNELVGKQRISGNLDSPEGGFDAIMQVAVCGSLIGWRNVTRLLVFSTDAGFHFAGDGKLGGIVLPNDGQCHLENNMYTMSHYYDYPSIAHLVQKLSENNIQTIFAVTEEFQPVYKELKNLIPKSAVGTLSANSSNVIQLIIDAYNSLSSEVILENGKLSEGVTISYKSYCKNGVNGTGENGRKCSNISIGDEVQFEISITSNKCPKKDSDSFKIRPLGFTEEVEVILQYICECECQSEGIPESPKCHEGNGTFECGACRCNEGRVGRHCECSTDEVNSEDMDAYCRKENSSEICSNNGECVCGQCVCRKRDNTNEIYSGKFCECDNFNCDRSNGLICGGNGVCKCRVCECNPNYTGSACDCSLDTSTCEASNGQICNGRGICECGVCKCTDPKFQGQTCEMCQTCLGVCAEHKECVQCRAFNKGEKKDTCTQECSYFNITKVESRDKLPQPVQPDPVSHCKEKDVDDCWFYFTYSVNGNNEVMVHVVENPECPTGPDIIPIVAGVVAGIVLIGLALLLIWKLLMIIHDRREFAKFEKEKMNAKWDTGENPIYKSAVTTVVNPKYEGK
Sequence of Integrin alpha-5/beta-1 (P08648 42-894 limits assumed): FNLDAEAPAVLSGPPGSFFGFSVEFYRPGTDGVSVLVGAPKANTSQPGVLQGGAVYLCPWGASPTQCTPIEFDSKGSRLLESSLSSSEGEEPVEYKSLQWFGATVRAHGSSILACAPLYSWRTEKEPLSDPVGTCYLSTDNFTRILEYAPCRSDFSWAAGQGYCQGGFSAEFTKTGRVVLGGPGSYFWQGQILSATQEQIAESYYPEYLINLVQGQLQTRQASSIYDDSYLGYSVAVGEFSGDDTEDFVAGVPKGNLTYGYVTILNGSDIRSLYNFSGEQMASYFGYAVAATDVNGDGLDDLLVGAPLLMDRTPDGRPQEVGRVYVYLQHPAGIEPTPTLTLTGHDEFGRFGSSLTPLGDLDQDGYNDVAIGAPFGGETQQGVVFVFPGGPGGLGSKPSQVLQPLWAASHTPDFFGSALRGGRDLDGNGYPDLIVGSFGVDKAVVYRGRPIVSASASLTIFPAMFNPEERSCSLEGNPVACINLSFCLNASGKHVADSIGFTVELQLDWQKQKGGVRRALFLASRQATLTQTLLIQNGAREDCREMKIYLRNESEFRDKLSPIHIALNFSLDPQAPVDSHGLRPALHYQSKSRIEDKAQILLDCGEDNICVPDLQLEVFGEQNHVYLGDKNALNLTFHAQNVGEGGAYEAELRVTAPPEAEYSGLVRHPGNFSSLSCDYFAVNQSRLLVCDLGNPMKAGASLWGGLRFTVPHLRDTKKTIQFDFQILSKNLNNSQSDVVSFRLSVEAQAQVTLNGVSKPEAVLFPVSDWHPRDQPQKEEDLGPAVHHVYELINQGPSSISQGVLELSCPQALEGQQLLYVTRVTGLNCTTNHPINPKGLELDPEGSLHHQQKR
Sequence of Integrin alpha-5/beta-1 (P08648 895-1049 limits assumed): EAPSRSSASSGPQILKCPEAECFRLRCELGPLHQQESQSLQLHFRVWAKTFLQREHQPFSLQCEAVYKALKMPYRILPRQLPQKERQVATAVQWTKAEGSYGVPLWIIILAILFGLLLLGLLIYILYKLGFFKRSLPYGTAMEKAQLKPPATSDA

CCCCS(=O)(=O)N[C@@H](Cc1ccc(OCCCCC2CCNCC2)cc1)C(=O)O [TIROFIBAN] was tested, and the IC50 (Integrin alpha-V/beta-3 [1]) was 260 µM, the IC50 (Integrin alpha-5/beta-1) was over 300 µM and the IC50 (Integrin alpha-V/beta-3 [2]) was 100 µM.
